In patent EP4603105A1, “PHARMACEUTICAL COMPOSITION CONTAINING CYCLIC COMPOUND HAVING SELECTIVE KRAS INHIBITORY EFFECT AGAINST HRAS AND NRAS” (CHUGAI SEIYAKU KABUSHIKI KAISHA, priority 2022, dated 2024):
pIC50, pKd: −log10 of the molar value. Where two headings read alike, the source gives them in different places.

How the values were obtained:
[1] = tested on: human lung cancer strain NCI-H441; assay: NCI-H441 cell proliferation inhibitory activity (CellTiter-Glo, 4 days); assay type: cell-based; conditions: read-out: NCl-H441 IC50
How it was run: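 Step one: dispense the test compound in serial DMSO dilutions. Step three: add the reagent and measure […].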

[2] = target: GDP-bound NRAS wild-type protein (Homo sapiens, UniProt P01111); assay: Binding to NRAS by surface plasmon resonance (SPR), KD and KD ratio to KRAS
How it was run: (§1)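 Running buffer contained 10 µM GDP and 10 mM MgCl2 to keep RAS in the GDP state, with 4% DMSO at pH 7.4. Compounds were flowed at 100 µL/min in 75 s steps of rising concentration over captured biotin-Avi RAS at 30°C. Sensorgrams were fitted 1:1 for KD.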

[3] = target: GDP-bound KRAS wild-type protein (Homo sapiens, UniProt P01116); assay: Binding to KRAS by surface plasmon resonance (SPR), dissociation constant KD
How it was run: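 Captured GDP-RAS (~100–300 RU) was exposed to increasing compound concentrations, 75 s per step, in running buffer with 10 µM GDP, 10 mM MgCl2 and 4% DMSO at pH 7.4.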

HRAS wild-type protein = HRAS wild-type protein (Homo sapiens, UniProt P01112); assay: Binding to HRAS by surface plasmon resonance (SPR), KD and KD ratio to KRAS
How it was run: as §1

[4] = ratio of KD for GDP-bound NRAS wild-type protein to KD for KRAS
[5] = ratio of KD for HRAS wild-type protein to KD for KRAS
[6] = 50% proliferation inhibitory concentration, four days
[7] = ratio of KD with respect to GDP-bound NRAS wild-type protein to KD with respect to KRAS
[8] = Single Cycle Kinetics, 1:1 binding model
[9] = ratio of KD with respect to HRAS wild-type protein to KD with respect to KRAS

Chain of HRAS wild-type protein (P01112 whole entry): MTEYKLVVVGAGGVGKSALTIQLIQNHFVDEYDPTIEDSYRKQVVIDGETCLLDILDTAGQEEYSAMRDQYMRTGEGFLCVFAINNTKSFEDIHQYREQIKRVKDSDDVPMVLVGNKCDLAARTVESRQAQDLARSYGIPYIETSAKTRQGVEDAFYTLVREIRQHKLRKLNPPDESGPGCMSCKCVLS
Chain of GDP-bound NRAS wild-type protein (P01111 whole entry): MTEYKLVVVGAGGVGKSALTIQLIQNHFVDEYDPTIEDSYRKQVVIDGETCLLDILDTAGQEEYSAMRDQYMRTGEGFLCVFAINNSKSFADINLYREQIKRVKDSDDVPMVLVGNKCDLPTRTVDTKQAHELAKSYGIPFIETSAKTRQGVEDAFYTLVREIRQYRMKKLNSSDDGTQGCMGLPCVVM
Chain of GDP-bound KRAS wild-type protein (P01116 1-188 isoform P01116-2): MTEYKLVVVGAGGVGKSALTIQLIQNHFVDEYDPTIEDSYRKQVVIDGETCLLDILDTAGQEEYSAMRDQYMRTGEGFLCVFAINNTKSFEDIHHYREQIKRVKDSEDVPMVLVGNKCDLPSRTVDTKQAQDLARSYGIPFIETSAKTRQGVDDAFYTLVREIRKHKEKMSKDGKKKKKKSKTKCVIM

## CC[C@H](C)[C@@H]1NC(=O)[C@H](COC)N(C)C(=O)C[C@@H](C(=O)N2CCCCC2)N(C)C(=O)[C@H](C2CCCC2)N(C)C(=O)C2(CC(C)(C)C2)NC(=O)[C@@H]2C[C@@H](OC(C)C)CN2C(=O)[C@H](CCc2ccc(Cl)c(Cl)c2)NC(=O)CN(C)C(=O)[C@H](Cc2ccc(C(F)(F)F)cc2)N2CC/C=C\C[C@@H](C2=O)N(C)C(=O)CN(C)C1=O [PP2671]
[1]; NCI-H441 cells, 4 days
  pIC50: 7.58
[2]; [4]
  NRAS /KRAS: A (a compound having 10 or more and less than 20 is denoted as A)
[3]; 1:1 binding model
  pKd: 9.17
HRAS wild-type protein; [5]
  HRAS /KRAS: A (a compound having 10 or more and less than 20 is denoted as A)

## CCC[C@H]1C(=O)N[C@@H](CC(C)C)C(=O)N(C2CC2)CC(=O)N(C)[C@H]2C/C=C\CCN(C2=O)[C@@H](Cc2ccc(C)cc2)C(=O)N(C)CC(=O)N[C@@H](CCc2ccc(C(F)(F)F)c(OC)c2)C(=O)N2C[C@H](OCC)C[C@H]2C(=O)NC2(CCC2)C(=O)N(C)[C@@H](C2CCCC2)C(=O)N(C)[C@H](C(=O)N(C)C)CC(=O)N1C [PP2534]
[1]; NCI-H441 cells, 4 days
  pIC50: 6.71
[2]; [4]
  NRAS /KRAS: A (a compound having 10 or more and less than 20 is denoted as A)
[3]; 1:1 binding model
  pKd: 8.39
HRAS wild-type protein; [5]
  HRAS /KRAS: B (a compound having 3 or more and less than 10 is denoted as B)

## C#CC[C@H]1C(=O)N[C@@H]([C@@H](C)CC)C(=O)N(C2CC2)CC(=O)N(C)[C@H]2C/C=C\CCN(C2=O)[C@@H](Cc2ccc(C)cc2)C(=O)N(C)CC(=O)N[C@@H](CCc2cc(F)c(C(F)(F)F)c(F)c2)C(=O)N2C[C@H](OCC)C[C@H]2C(=O)N(C)C2(CCC2)C(=O)N(C)[C@@H](C2CCCC2)C(=O)N(C)[C@H](C(=O)N(C)C)CC(=O)N1C [PP3250]
[1]; NCI-H441 cells, 4 days
  pIC50: 8.55
[2]; [4]
  NRAS /KRAS: A (a compound having 10 or more and less than 20 is denoted as A)
[3]; Single Cycle Kinetics
  pKd: 10.00
HRAS wild-type protein; [5]
  HRAS /KRAS: B (a compound having 3 or more and less than 10 is denoted as B)

## CC[C@H](C)[C@@H]1NC(=O)[C@H](CC2CC2)N(C)C(=O)C[C@@H](C)N(C)C(=O)[C@H](C2CCCC2)N(C)C(=O)C2(CCC2)NC(=O)[C@H](CCC(F)F)N(C)C(=O)[C@H](CCc2cc(F)c(C(F)(F)F)c(F)c2)NC(=O)CN(C)C(=O)[C@H](Cc2ccc(C(F)(F)F)cc2)N2CC/C=C\C[C@@H](C2=O)N(C)C(=O)CN(C)C1=O [PP1404]
[1]; [6]
  pIC50: 6.30
[2]; [7]
  NRAS /KRAS: A (a compound having 10 or more and less than 20 is denoted as A)
[3]; [8]
  pKd: 8.32
HRAS wild-type protein; [9]
  HRAS /KRAS: A (a compound having 10 or more and less than 20 is denoted as A)

## CCO[C@@H]1C[C@H]2C(=O)NC3(CCCC3)C(=O)N(C)[C@@H](C3CCCC3)C(=O)N(C)[C@H](C(=O)N(C)C)CC(=O)N(C)[C@@H](C)C(=O)N[C@@H]([C@@H](C)CC)C(=O)N(C)CC(=O)N(C)[C@H]3C/C=C\CCN(C3=O)[C@@H](CC3CCC(F)(F)CC3)C(=O)N(C)CC(=O)N[C@@H](CCc3cc(F)c(C(F)(F)F)c(F)c3)C(=O)N2C1 [PP1456]
[1]; [6]
  pIC50: 7.05
[2]; [7]
  NRAS /KRAS: A (a compound having 10 or more and less than 20 is denoted as A)
[3]; [8]
  pKd: 9.92
HRAS wild-type protein; [9]
  HRAS /KRAS: A (a compound having 10 or more and less than 20 is denoted as A)

## CCO[C@@H]1C[C@H]2C(=O)OC3(CCC3)C(=O)N(C)[C@@H](C3CCCC3)C(=O)N(C)[C@H](C(=O)N(C)C)CC(=O)N(C)[C@@H]([C@H](C)OC)C(=O)N[C@@H]([C@@H](C)CC)C(=O)N(C3CC3)CC(=O)N(C)[C@H]3C/C=C\CCN(C3=O)[C@@H](Cc3ccc(C)cc3)C(=O)N(C)CC(=O)N[C@@H](CCc3ccc(C(F)(F)F)c(OC)c3)C(=O)N2C1 [PP3396]
[1]; NCI-H441 cells, 4 days
  pIC50: 7.89
[2]; [4]
  NRAS /KRAS: A (a compound having 10 or more and less than 20 is denoted as A)
[3]; Single Cycle Kinetics
  pKd: 8.85
HRAS wild-type protein; [5]
  HRAS /KRAS: B (a compound having 3 or more and less than 10 is denoted as B)

## CC[C@H](C)[C@@H]1NC(=O)[C@H](COC)N(C)C(=O)C[C@@H](C(=O)N(C)C)N(C)C(=O)[C@H](C2CCCC2)N(C)C(=O)C2(CC(C)(C)C2)NC(=O)[C@@H]2C[C@@H](OC3CCCC3)CN2C(=O)[C@H](CCc2cc(F)c(C(F)(F)F)c(F)c2)NC(=O)CN(C)C(=O)[C@H](CC2CCCCC2)N2CC/C=C\C[C@@H](C2=O)N(C)C(=O)CN(C2CC2)C1=O [PP2630]
[1]; NCI-H441 cells, 4 days
  pIC50: 6.72
[2]; [4]
  NRAS /KRAS: A (a compound having 10 or more and less than 20 is denoted as A)
[3]; 1:1 binding model
  pKd: 8.52
HRAS wild-type protein; [5]
  HRAS /KRAS: B (a compound having 3 or more and less than 10 is denoted as B)

## CCO[C@@H]1C[C@H]2C(=O)NC3(CCCC3)C(=O)N(C)[C@@H](C3CCCC3)C(=O)N(C)[C@H](C(=O)N(C)C)CC(=O)N(C)[C@@H](CC(C)C)C(=O)N[C@@H]([C@@H](C)CC)C(=O)N(C)CC(=O)N(C)[C@H]3C/C=C\CCN(C3=O)[C@@H](CC3CCC(F)(F)CC3)C(=O)N(C)CC(=O)N[C@@H](CCc3cc(F)c(C(F)(F)F)c(F)c3)C(=O)N2C1 [PP1459]
[1]; [6]
  pIC50: 7.41
[2]; [7]
  NRAS /KRAS: A (a compound having 10 or more and less than 20 is denoted as A)
[3]; [8]
  pKd: 9.70
HRAS wild-type protein; [9]
  HRAS /KRAS: A (a compound having 10 or more and less than 20 is denoted as A)

## CCO[C@@H]1C[C@H]2C(=O)NC3(CCC3)C(=O)N(C)[C@@H](C3CCCC3)C(=O)N(C)[C@H](C(=O)N(C)C)CC(=O)N(C)[C@@H](Cc3ccc(C#N)cc3)C(=O)N[C@@H]([C@@H](C)CC)C(=O)N(C)CC(=O)N(C)[C@H]3CCCCCN(C3=O)[C@@H](Cc3ccc(F)cc3)C(=O)N(C)CC(=O)N[C@@H](CCc3cc(F)c(C(F)(F)F)c(F)c3)C(=O)N2C1 [PP1157]
[1]; [6]
  pIC50: 7.52
[2]; [7]
  NRAS /KRAS: B (a compound having 3 or more and less than 10 is denoted as B)
[3]; [8]
  pKd: 10.21
HRAS wild-type protein; [9]
  HRAS /KRAS: B (a compound having 3 or more and less than 10 is denoted as B)

## C=CCN1CC(=O)N(C)[C@H]2C/C=C\CCN(C2=O)[C@@H](Cc2ccc(C(F)F)cc2)C(=O)N(C)CC(=O)N[C@@H](CCc2ccc(C(F)(F)F)cc2Cl)C(=O)N2C[C@H](OC(C)C)C[C@H]2C(=O)N(C)C2(CCC2)C(=O)N(C)[C@@H](C(CC)CC)C(=O)N(C)[C@H](C(=O)N(C)C)CC(=O)N(C)[C@@H](CC2CC2)C(=O)N[C@@H]([C@@H](C)OCCC)C1=O [PP3493]
[1]; NCI-H441 cells, 4 days
  pIC50: 7.49
[2]; [4]
  NRAS /KRAS: AA (a compound having 20 or more is denoted as AA)
[3]; Single Cycle Kinetics
  pKd: 9.00
HRAS wild-type protein; [5]
  HRAS /KRAS: A (a compound having 10 or more and less than 20 is denoted as A)

## C#CCN1CC(=O)N(C)[C@H]2C/C=C\CCN(C2=O)[C@@H](Cc2ccc(C)cc2)C(=O)N(C)CC(=O)N[C@@H](CCc2ccc(C(F)(F)F)c(Cl)c2)C(=O)N2C[C@H](OCC)C[C@H]2C(=O)NC2(CC(C)(C)C2)C(=O)N(C)[C@@H](C2CCCC2)C(=O)N(C)[C@H](C(=O)N(C)C)CC(=O)N(C)[C@@H](CCC)C(=O)N[C@@H](CC(C)C)C1=O [PP2526]
[1]; NCI-H441 cells, 4 days
  pIC50: 7.26
[2]; [4]
  NRAS /KRAS: A (a compound having 10 or more and less than 20 is denoted as A)
[3]; 1:1 binding model
  pKd: 8.40
HRAS wild-type protein; [5]
  HRAS /KRAS: B (a compound having 3 or more and less than 10 is denoted as B)

## CCO[C@@H]1C[C@H]2C(=O)NC3(CCC3)C(=O)N(C)[C@@H](C3CCCC3)C(=O)N(C)[C@H](C)CC(=O)N(C)[C@@H](CC3CC3)C(=O)N[C@@H]([C@@H](C)CC)C(=O)N(C)CC(=O)N(C)[C@H]3C/C=C\CCN(C3=O)[C@@H](Cc3ccc(C)cc3)C(=O)N(C)CC(=O)N[C@@H](CCc3cc(F)c(C(F)(F)F)c(F)c3)C(=O)N2C1 [PP1410]
[1]; [6]
  pIC50: 7.29
[2]; [7]
  NRAS /KRAS: B (a compound having 3 or more and less than 10 is denoted as B)
[3]; [8]
  pKd: 9.49
HRAS wild-type protein; [9]
  HRAS /KRAS: B (a compound having 3 or more and less than 10 is denoted as B)
